According to patent US11414379B2, “SPAK kinase inhibitors as neuroprotective agents” (United States Government as represented by the Department …, priority 2018, dated 2022):

How the values were obtained:
GST-[T233E]SPAK kinase = target: T1, GST-[T233E]SPAK kinase (Homo sapiens, UniProt Q9UEW8, T231E); assay: SPAK kinase assay employing CATCHtide; assay type: biochemical
T1 construct: made in house; host or cells: E. coli
Protocol: SPAK kinase assays employing CATCHtide (cation chloride co-transporter peptide substrate). Peptide kinase assays, performed in triplicate, were set up in a total volume of 50 μl containing 0.5 μg GST-[T233E]SPAK kinase (˜5 nM at ˜10% purity) in 50 mM Tris/HCl, pH 7.5, 0.1 mM EGTA, 10 mM MgCl2, 300 μM CATCHtide ([…]; SEQ ID NO:1), […] [γ-32P]ATP (˜500 cpm/pmol) and the indicated concentrations of inhibitor dissolved in DMSO. After incubation for 30 min at 30° C., reactions were terminated by spotting 40 μl of the reaction mix onto P81 phosphocellulose paper and immersion in 50 mM phosphoric acid. The papers were washed extensively and the incorporation of [γ-^32P]ATP into CATCHtide was quantified by Cerenkov counting. IC^50 values were calculated with GraphPad Prism using non-linear regression analysis.
Referring to FIG. 7A, the activation of SPAK kinase by MO25α is shown. SPAK was assayed in the absence or presence of five-fold molar excess of wild-type MO25α.
Referring to FIG. 7B, kinetic data was determined for ZT-1a in the absence or presence of five-fold molar excess of wild-type MO25α. Data points are the average of three determinations, and the error bars are +/−SEM.

[1] = system: rats post-IVH (CSF hypersecretion); assay: Rate of CSF production, post-hemorrhagic hydrocephalus model; assay type: in vivo, rat; conditions: ICV treatment for 48 hr
Protocol: All animal experiments were approved by the Institutional Animal Care and Use Committee (IACUC) of the Yale University, and in accordance with the guidelines and regulations in the NIH Guide for the Care and Use of Laboratory Animals. Male Wistar rats (Harlan, Indianapolis, Ind., USA), age 8 weeks (220-230 g), were anesthetized (60 mg/kg ketamine plus 7.5 mg/kg xylazine, IP) and allowed to breathe room air spontaneously. Body temperature was maintained at 37±1° C. (Harvard Apparatus, Holliston, Mass., USA) throughout the course of the experiments. PHH was modeled using a modified protocol based on previously described methods (Karimy et al. (2015) Nature medicine 23: 997-1003; Simard et al. (2011) Transl Stroke Res 2: 227-231). […]
Rates of CSF production were measured using the method we recently published (Karimy et al. (2015) Nature medicine 23: 997-1003). […] The volume (V) of CSF that forms at a given timepoint is calculated as: V (mm^3)=π·r^2·d, where r is the radius of the capillary tube and d is the distance CSF traveled within the capillary. The rate of CSF formation (μL/min) can be calculated from the slope of the volume-time relationship. A baseline rate of spontaneous CSF secretion (no drug infusion) was calculated over 30 minutes prior to drug infusion, then compared to the calculated rate of CSF formation following 30 minutes of ZT-1a infusion. […]

## Cc1cc(C(C#N)c2ccc(Cl)cc2)c(Cl)cc1NC(=O)c1cc(Cl)ccc1O (centres unmarked) [ZT-1a, 5-chloro-N-(5-chloro-4-((4-chlorophenyl)(cyano)methyl)-2-methylphenyl)-2-hydroxy-benzamide]
GST-[T233E]SPAK kinase
  change of IC50 values by addition of MO25α: not significantly altered
GST-[T233E]SPAK kinase; SPAK activity at different ATP concentrations
  change of IC50 values with increasing ATP concentrations: unchanged
GST-[T233E]SPAK kinase; absence of wild-type MO25α
  IC50: 40.5 µM
GST-[T233E]SPAK kinase; presence of five-fold molar excess of wild-type MO25α
  IC50: 41.3 µM
[1]
  decrease of post-IVH CSF hypersecretion: ~57±6.2%
